Earlier results, collected in patent publication US6777448B2, “Veterinary compositions for the treatment of parasitic diseases” (New Pharma Research Sweden AB, priority 2000, dated 2004).
Where two headings read alike, the source gives them in different places.

Columns and labels:
[1] = delivered via injection as such
[2] = given orally
[3] = bloodstream of animals

O=C(Nc1ccc(Oc2ccc(Cl)cc2)c(Cl)c1)c1cc(I)cc(I)c1O [rafoxanide, 3′-chloro-4′-(4-chlorophenoxy)-3,5-di-iodosalicylanilide]
irritation on injection [1]: irritating
absorption ([2]; non-gastric species): 10%
absorption ([2]; ruminants): up to 50%
binding to protein in the blood [3]: bind strongly to protein in the blood
persistence in the bloodstream [3]: persist in the bloodstream of animals
solubility (in a 1% surface-active agent composition): 0.14%
solubility in water (water at 25° C.): approximately 0.005 % weight/volume
